PubChem BioAssay AID1963984 (Molecular Pharmacology Branch, DTP, NCI, 2024)

Test system: 233499-124-R-J3-PDC spheroids with HUVEC/MSC, viability
Assay: Anticancer human tumor 233499-124-R-J3-PDC patient-derived colon adenocarcinoma cell line growth inhibition [PI3K]
Conditions: for IC50: curve of first compound; for viability, T/C: stronger effect = lower value; active means viability on the fitted dose curve at most 10% of control; inactive means the rest
Outline: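 Stroma-containing spheroids: tumor line, pooled-donor HUVEC, hMSC. Treatments: targeted agents with PI3K inhibitors. Dosing: clinically relevant, half-log spacing, 10 microM ceiling without known Cmax. Read-out: cell viability.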
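Further: spheroids exposed to agents for seven days before readout.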
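Wherever viability, T/C is given: percent viability relative to DMSO vehicle control taken as 100%.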

CNC(=O)c1ccc(N2C(=S)N(c3ccc(C#N)c(C(F)(F)F)c3)C(=O)C2(C)C)cc1F + COc1c(OCCCN2CCOCC2)ccc2c3n(c(=NC(=O)c4cnc(N)nc4)nc12)CCN3
< 31.6 nM: IC50 (second compound 0.316 µM) | IC50 (second compound 1 µM)
active: viability, T/C (second compound 1 µM, first compound 1 µM) 5.24% | viability, T/C (second compound 1 µM, first compound 3.16 µM) 10.3% | viability, T/C (second compound 1 µM, first compound 10 µM) 4.27%
inactive: viability, T/C (second compound 0.00316 µM, first compound 0.0316 µM) 93.8% | viability, T/C (second compound 0.00316 µM, first compound 0.1 µM) 97.3% | viability, T/C (second compound 0.00316 µM, first compound 0.316 µM) 97.2% | viability, T/C (second compound 0.00316 µM, first compound 1 µM) 81.9% | viability, T/C (second compound 0.00316 µM, first compound 3.16 µM) 65.7% | viability, T/C (second compound 0.00316 µM, first compound 10 µM) 54.3% | viability, T/C (second compound 0.01 µM, first compound 0.0316 µM) 88.1% | viability, T/C (second compound 0.01 µM, first compound 0.1 µM) 105% | viability, T/C (second compound 0.01 µM, first compound 0.316 µM) 99% | viability, T/C (second compound 0.01 µM, first compound 1 µM) 87.7% | viability, T/C (second compound 0.01 µM, first compound 3.16 µM) 89.9% | viability, T/C (second compound 0.01 µM, first compound 10 µM) 60.1% | viability, T/C (second compound 0.0316 µM, first compound 0.0316 µM) 101% | viability, T/C (second compound 0.0316 µM, first compound 0.1 µM) 85.3% | viability, T/C (second compound 0.0316 µM, first compound 0.316 µM) 98.3% | viability, T/C (second compound 0.0316 µM, first compound 1 µM) 78.1% | viability, T/C (second compound 0.0316 µM, first compound 3.16 µM) 63.8% | viability, T/C (second compound 0.0316 µM, first compound 10 µM) 50.4% | viability, T/C (second compound 0.1 µM, first compound 0.0316 µM) 84% | viability, T/C (second compound 0.1 µM, first compound 0.1 µM) 53.8% | viability, T/C (second compound 0.1 µM, first compound 0.316 µM) 75.2% | viability, T/C (second compound 0.1 µM, first compound 1 µM) 64.2% | viability, T/C (second compound 0.1 µM, first compound 3.16 µM) 47.4% | viability, T/C (second compound 0.1 µM, first compound 10 µM) 44% | viability, T/C (second compound 0.316 µM, first compound 0.0316 µM) 33% | viability, T/C (second compound 0.316 µM, first compound 0.1 µM) 30.5% | viability, T/C (second compound 0.316 µM, first compound 0.316 µM) 44.1% | viability, T/C (second compound 0.316 µM, first compound 1 µM) 32.3% | viability, T/C (second compound 0.316 µM, first compound 3.16 µM) 30.7% | viability, T/C (second compound 0.316 µM, first compound 10 µM) 12.1% | viability, T/C (second compound 1 µM, first compound 0.0316 µM) 10% | viability, T/C (second compound 1 µM, first compound 0.1 µM) 24.7% | viability, T/C (second compound 1 µM, first compound 0.316 µM) 6.89%
4120 nM: IC50 (second compound 0.1 µM)
> 10000 nM: IC50 (second compound 0.00316 µM) | IC50 (second compound 0.01 µM) | IC50 (second compound 0.0316 µM)

Cn1cnc2c(F)c(Nc3ccc(Br)cc3Cl)c(C(=O)NOCCO)cc21 + COc1c(OCCCN2CCOCC2)ccc2c3n(c(=NC(=O)c4cnc(N)nc4)nc12)CCN3
131 nM: IC50 (second compound 0.0316 µM)
760 nM: IC50 (second compound 0.01 µM)
< 9.49 nM: IC50 (second compound 0.316 µM) | IC50 (second compound 1 µM)
54 nM: IC50 (second compound 0.1 µM)
active: viability, T/C (second compound 0.316 µM, first compound 0.3 µM) 10.2% | viability, T/C (second compound 0.316 µM, first compound 0.949 µM) 5.14% | viability, T/C (second compound 0.316 µM, first compound 3 µM) 6.9% | viability, T/C (second compound 1 µM, first compound 0.00949 µM) 2.93% | viability, T/C (second compound 1 µM, first compound 0.03 µM) 7.86% | viability, T/C (second compound 1 µM, first compound 0.0949 µM) 4.9% | viability, T/C (second compound 1 µM, first compound 0.3 µM) 0.96% | viability, T/C (second compound 1 µM, first compound 0.949 µM) 1.18% | viability, T/C (second compound 1 µM, first compound 3 µM) 1.01%
378 nM: IC50 (second compound 0.00316 µM)
inactive: viability, T/C (second compound 0.00316 µM, first compound 0.00949 µM) 55.7% | viability, T/C (second compound 0.00316 µM, first compound 0.03 µM) 73.5% | viability, T/C (second compound 0.00316 µM, first compound 0.0949 µM) 76.5% | viability, T/C (second compound 0.00316 µM, first compound 0.3 µM) 54.9% | viability, T/C (second compound 0.00316 µM, first compound 0.949 µM) 31.2% | viability, T/C (second compound 0.00316 µM, first compound 3 µM) 29.5% | viability, T/C (second compound 0.01 µM, first compound 0.00949 µM) 75.2% | viability, T/C (second compound 0.01 µM, first compound 0.03 µM) 80.8% | viability, T/C (second compound 0.01 µM, first compound 0.0949 µM) 75.5% | viability, T/C (second compound 0.01 µM, first compound 0.3 µM) 56% | viability, T/C (second compound 0.01 µM, first compound 0.949 µM) 50.3% | viability, T/C (second compound 0.01 µM, first compound 3 µM) 24.6% | viability, T/C (second compound 0.0316 µM, first compound 0.00949 µM) 68.3% | viability, T/C (second compound 0.0316 µM, first compound 0.03 µM) 78.9% | viability, T/C (second compound 0.0316 µM, first compound 0.0949 µM) 54.1% | viability, T/C (second compound 0.0316 µM, first compound 0.3 µM) 34.2% | viability, T/C (second compound 0.0316 µM, first compound 0.949 µM) 30.4% | viability, T/C (second compound 0.0316 µM, first compound 3 µM) 20.1% | viability, T/C (second compound 0.1 µM, first compound 0.00949 µM) 71.5% | viability, T/C (second compound 0.1 µM, first compound 0.03 µM) 67.5% | viability, T/C (second compound 0.1 µM, first compound 0.0949 µM) 33.1% | viability, T/C (second compound 0.1 µM, first compound 0.3 µM) 28.2% | viability, T/C (second compound 0.1 µM, first compound 0.949 µM) 19.1% | viability, T/C (second compound 0.1 µM, first compound 3 µM) 17.9% | viability, T/C (second compound 0.316 µM, first compound 0.00949 µM) 41.3% | viability, T/C (second compound 0.316 µM, first compound 0.03 µM) 34.2% | viability, T/C (second compound 0.316 µM, first compound 0.0949 µM) 13.1%
